{"source": "PubChem BioAssay AID1919007", "about": "(Molecular Pharmacology Branch, DTP, NCI, 2023)", "test_system": "A498 complex spheroids with HUVEC/MSC, growth", "assay": "Anticancer human tumor A498 cell line growth inhibition [AhR];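 note: seven day exposure starting three days after spheroid seeding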;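 for viability, T/C: luminescence signal used as a surrogate for viable cells; luminescence viability scaled so 100% equals DMSO vehicle wells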", "conditions": "for viability, T/C: stronger effect = lower value", "how_it_was_run": "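Complex tumor spheroids co-cultured with HUVEC and human MSC stroma; AhR antagonists tested in combination with standard-of-care and investigational agents. Top concentration at or near clinical Cmax (else 10 microM), half-log dilutions; growth expressed as percent test/control.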", "key": {"[1]": {"conditions": "curve of first compound, second compound 0.1 µM"}, "[2]": {"conditions": "curve of first compound, second compound 0.316 µM"}, "[3]": {"conditions": "curve of first compound, second compound 1 µM"}, "[4]": {"conditions": "curve of first compound, second compound 3.16 µM"}, "[5]": {"conditions": "curve of first compound, second compound 10 µM"}, "[6]": {"conditions": "second compound 0.1 µM, first compound 0.0316 µM"}, "[7]": {"conditions": "second compound 0.1 µM, first compound 0.1 µM"}, "[8]": {"conditions": "second compound 0.1 µM, first compound 0.316 µM"}, "[9]": {"conditions": "second compound 0.1 µM, first compound 1 µM"}, "[10]": {"conditions": "second compound 0.1 µM, first compound 3.16 µM"}, "[11]": {"conditions": "second compound 0.1 µM, first compound 10 µM"}, "[12]": {"conditions": "second compound 0.316 µM, first compound 0.0316 µM"}, "[13]": {"conditions": "second compound 0.316 µM, first compound 0.1 µM"}, "[14]": {"conditions": "second compound 0.316 µM, first compound 0.316 µM"}, "[15]": {"conditions": "second compound 0.316 µM, first compound 1 µM"}, "[16]": {"conditions": "second compound 0.316 µM, first compound 3.16 µM"}, "[17]": {"conditions": "second compound 0.316 µM, first compound 10 µM"}, "[18]": {"conditions": "second compound 1 µM, first compound 0.0316 µM"}, "[19]": {"conditions": "second compound 1 µM, first compound 0.1 µM"}, "[20]": {"conditions": "second compound 1 µM, first compound 0.316 µM"}, "[21]": {"conditions": "second compound 1 µM, first compound 1 µM"}, "[22]": {"conditions": "second compound 1 µM, first compound 3.16 µM"}, "[23]": {"conditions": "second compound 1 µM, first compound 10 µM"}, "[24]": {"conditions": "second compound 3.16 µM, first compound 0.0316 µM"}, "[25]": {"conditions": "second compound 3.16 µM, first compound 0.1 µM"}, "[26]": {"conditions": "second compound 3.16 µM, first compound 0.316 µM"}, "[27]": {"conditions": "second compound 3.16 µM, first compound 1 µM"}, "[28]": {"conditions": "second compound 3.16 µM, first compound 3.16 µM"}, "[29]": {"conditions": "second compound 3.16 µM, first compound 10 µM"}, "[30]": {"conditions": "second compound 10 µM, first compound 0.0316 µM"}, "[31]": {"conditions": "second compound 10 µM, first compound 0.1 µM"}, "[32]": {"conditions": "second compound 10 µM, first compound 0.316 µM"}, "[33]": {"conditions": "second compound 10 µM, first compound 1 µM"}, "[34]": {"conditions": "second compound 10 µM, first compound 3.16 µM"}, "[35]": {"conditions": "second compound 10 µM, first compound 10 µM"}}, "note": "“And” between values parts separate entries of the source, which are not always exact repeats. Equal values may be shown once."}
{"compound": "CCc1c2c(nc3ccc(O)cc13)-c1cc3c(c(=O)n1C2)COC(=O)[C@]3(O)CC", "values": [{"measurement": "viability, T/C", "setting": "compound 0.000949 µM", "result": "87% and 101% and 90.7%"}, {"measurement": "viability, T/C", "setting": "compound 0.003 µM", "result": "85.5% and 93.3% and 84.1%"}, {"measurement": "viability, T/C", "setting": "compound 0.00949 µM", "result": "65.7% and 84% and 61.2%"}, {"measurement": "viability, T/C", "setting": "compound 0.03 µM", "result": "58.1% and 70.1% and 45.5%"}, {"measurement": "viability, T/C", "setting": "compound 0.0949 µM", "result": "42.9% and 49.1% and 37.1%"}, {"measurement": "viability, T/C", "setting": "compound 0.3 µM", "result": "33.4% and 41.5% and 29.9%"}, {"measurement": "IC50", "setting": "curve of compound", "result": "51.1 nM and 109 nM and 21.9 nM"}]}
{"compound": "O=C(c1cc(Cc2n[nH]c(=O)c3ccccc23)ccc1F)N1CCN(C(=O)C2CC2)CC1", "note": "+ Cc1cncc(-c2nc(NCCc3c[nH]c4ccccc34)c3ncn(C(C)C)c3n2)c1", "values": [{"measurement": "IC50", "setting": "[1]", "result": "> 10000", "unit": "nM"}, {"measurement": "IC50", "setting": "[2]", "result": "> 10000", "unit": "nM"}, {"measurement": "IC50", "setting": "[3]", "result": "> 10000", "unit": "nM"}, {"measurement": "IC50", "setting": "[4]", "result": "> 10000", "unit": "nM"}, {"measurement": "IC50", "setting": "[5]", "result": "< 31.6", "unit": "nM"}, {"measurement": "viability, T/C", "setting": "[6]", "result": 96.9, "unit": "%"}, {"measurement": "viability, T/C", "setting": "[7]", "result": 93.8, "unit": "%"}, {"measurement": "viability, T/C", "setting": "[8]", "result": 89.2, "unit": "%"}, {"measurement": "viability, T/C", "setting": "[9]", "result": 88.5, "unit": "%"}, {"measurement": "viability, T/C", "setting": "[10]", "result": 89.2, "unit": "%"}, {"measurement": "viability, T/C", "setting": "[11]", "result": 87.3, "unit": "%"}, {"measurement": "viability, T/C", "setting": "[12]", "result": 102, "unit": "%"}, {"measurement": "viability, T/C", "setting": "[13]", "result": 101, "unit": "%"}, {"measurement": "viability, T/C", "setting": "[14]", "result": 97.9, "unit": "%"}, {"measurement": "viability, T/C", "setting": "[15]", "result": 94.7, "unit": "%"}, {"measurement": "viability, T/C", "setting": "[16]", "result": 93.8, "unit": "%"}, {"measurement": "viability, T/C", "setting": "[17]", "result": 86, "unit": "%"}, {"measurement": "viability, T/C", "setting": "[18]", "result": 92.8, "unit": "%"}, {"measurement": "viability, T/C", "setting": "[19]", "result": 89.4, "unit": "%"}, {"measurement": "viability, T/C", "setting": "[20]", "result": 93.8, "unit": "%"}, {"measurement": "viability, T/C", "setting": "[21]", "result": 88.8, "unit": "%"}, {"measurement": "viability, T/C", "setting": "[22]", "result": 84, "unit": "%"}, {"measurement": "viability, T/C", "setting": "[23]", "result": 86, "unit": "%"}, {"measurement": "viability, T/C", "setting": "[24]", "result": 56.3, "unit": "%"}, {"measurement": "viability, T/C", "setting": "[25]", "result": 62.5, "unit": "%"}, {"measurement": "viability, T/C", "setting": "[26]", "result": 59.8, "unit": "%"}, {"measurement": "viability, T/C", "setting": "[27]", "result": 58.2, "unit": "%"}, {"measurement": "viability, T/C", "setting": "[28]", "result": 54.3, "unit": "%"}, {"measurement": "viability, T/C", "setting": "[29]", "result": 57.7, "unit": "%"}, {"measurement": "viability, T/C", "setting": "[30]", "result": 4.54, "unit": "%"}, {"measurement": "viability, T/C", "setting": "[31]", "result": 4.29, "unit": "%"}, {"measurement": "viability, T/C", "setting": "[32]", "result": 4.31, "unit": "%"}, {"measurement": "viability, T/C", "setting": "[33]", "result": 4.01, "unit": "%"}, {"measurement": "viability, T/C", "setting": "[34]", "result": 4.31, "unit": "%"}, {"measurement": "viability, T/C", "setting": "[35]", "result": 6.37, "unit": "%"}]}
{"compound": "CCN(c1cc(-c2ccc(CN3CCOCC3)cc2)cc(C(=O)NCc2c(C)cc(C)[nH]c2=O)c1C)C1CCOCC1", "values": [{"measurement": "viability, T/C", "setting": "compound 0.00949 µM", "result": "105% and 107% and 106%"}, {"measurement": "viability, T/C", "setting": "compound 0.03 µM", "result": "106% (2×) and 107%"}, {"measurement": "viability, T/C", "setting": "compound 0.0949 µM", "result": "107% and 109% and 106%"}, {"measurement": "viability, T/C", "setting": "compound 0.3 µM", "result": "102% (2×) and 97.8%"}, {"measurement": "viability, T/C", "setting": "compound 0.949 µM", "result": "101% and 104% and 108%"}, {"measurement": "viability, T/C", "setting": "compound 3 µM", "result": "103% and 104% and 110%"}, {"measurement": "IC50", "setting": "curve of compound", "result": "> 3000", "unit": "nM"}]}
{"compound": "COc1cc(Nc2ncc3c(n2)-c2ccc(Cl)cc2C(c2c(F)cccc2OC)=NC3)ccc1C(=O)O", "note": "+ Cc1cncc(-c2nc(NCCc3c[nH]c4ccccc34)c3ncn(C(C)C)c3n2)c1", "values": [{"measurement": "IC50", "setting": "[1]", "result": 1460, "unit": "nM"}, {"measurement": "IC50", "setting": "[2]", "result": 1790, "unit": "nM"}, {"measurement": "IC50", "setting": "[3]", "result": 918, "unit": "nM"}, {"measurement": "IC50", "setting": "[4]", "result": 418, "unit": "nM"}, {"measurement": "IC50", "setting": "[5]", "result": "< 31.6", "unit": "nM"}, {"measurement": "viability, T/C", "setting": "[6]", "result": 68.9, "unit": "%"}, {"measurement": "viability, T/C", "setting": "[7]", "result": 72, "unit": "%"}, {"measurement": "viability, T/C", "setting": "[8]", "result": 64, "unit": "%"}, {"measurement": "viability, T/C", "setting": "[9]", "result": 51.5, "unit": "%"}, {"measurement": "viability, T/C", "setting": "[10]", "result": 44.2, "unit": "%"}, {"measurement": "viability, T/C", "setting": "[11]", "result": 32.4, "unit": "%"}, {"measurement": "viability, T/C", "setting": "[12]", "result": 71.9, "unit": "%"}, {"measurement": "viability, T/C", "setting": "[13]", "result": 67.8, "unit": "%"}, {"measurement": "viability, T/C", "setting": "[14]", "result": 69.6, "unit": "%"}, {"measurement": "viability, T/C", "setting": "[15]", "result": 54, "unit": "%"}, {"measurement": "viability, T/C", "setting": "[16]", "result": 45.3, "unit": "%"}, {"measurement": "viability, T/C", "setting": "[17]", "result": 35, "unit": "%"}, {"measurement": "viability, T/C", "setting": "[18]", "result": 71.2, "unit": "%"}, {"measurement": "viability, T/C", "setting": "[19]", "result": 71.4, "unit": "%"}, {"measurement": "viability, T/C", "setting": "[20]", "result": 62.4, "unit": "%"}, {"measurement": "viability, T/C", "setting": "[21]", "result": 47.4, "unit": "%"}, {"measurement": "viability, T/C", "setting": "[22]", "result": 41.4, "unit": "%"}, {"measurement": "viability, T/C", "setting": "[23]", "result": 33.4, "unit": "%"}, {"measurement": "viability, T/C", "setting": "[24]", "result": 56.9, "unit": "%"}, {"measurement": "viability, T/C", "setting": "[25]", "result": 58, "unit": "%"}, {"measurement": "viability, T/C", "setting": "[26]", "result": 52.2, "unit": "%"}, {"measurement": "viability, T/C", "setting": "[27]", "result": 42.3, "unit": "%"}, {"measurement": "viability, T/C", "setting": "[28]", "result": 35.3, "unit": "%"}, {"measurement": "viability, T/C", "setting": "[29]", "result": 30.5, "unit": "%"}, {"measurement": "viability, T/C", "setting": "[30]", "result": 4.64, "unit": "%"}, {"measurement": "viability, T/C", "setting": "[31]", "result": 6.08, "unit": "%"}, {"measurement": "viability, T/C", "setting": "[32]", "result": 4.95, "unit": "%"}, {"measurement": "viability, T/C", "setting": "[33]", "result": 4.83, "unit": "%"}, {"measurement": "viability, T/C", "setting": "[34]", "result": 4.84, "unit": "%"}, {"measurement": "viability, T/C", "setting": "[35]", "result": 6.67, "unit": "%"}]}
{"compound": "COc1cc(Nc2ncc3c(n2)-c2ccc(Cl)cc2C(c2c(F)cccc2OC)=NC3)ccc1C(=O)O", "values": [{"measurement": "viability, T/C", "setting": "compound 0.0316 µM", "result": "80.4% and 74.9% and 66.8%"}, {"measurement": "viability, T/C", "setting": "compound 0.1 µM", "result": "75.4% and 73.6% and 76.6%"}, {"measurement": "viability, T/C", "setting": "compound 0.316 µM", "result": "72.2% and 71.5% and 58.7%"}, {"measurement": "viability, T/C", "setting": "compound 1 µM", "result": "55.6% and 60.1% and 52.7%"}, {"measurement": "viability, T/C", "setting": "compound 3.16 µM", "result": "50% and 51.6% and 46%"}, {"measurement": "viability, T/C", "setting": "compound 10 µM", "result": "38.7% and 36% and 35.6%"}, {"measurement": "IC50", "setting": "curve of compound", "result": "2480 nM and 3420 nM and 1500 nM"}]}
